Test results published in ChEMBL document CHEMBL1148213, “Diterpenoids from Isodon melissoides” (J Nat Prod, 2004).
≈ marks a conversion by molar mass, not a printed value.

system: BGC-823; assay: Cytotoxicity against human BGC823 cells; type: functional, cell-based

Structure (SMILES)	Activity	IC50 [µg/mL]
C=C1[C@@H]2C[C@H](O)[C@@H]3[C@](C2)(C[C@H](OC(C)=O)[C@@H]2C(C)(C)[C@@H](OC(C)=O)C[C@H](O)[C@]23C)[C@@H]1O	Not toxic	–
C=C1[C@@H]2C[C@H](O)[C@@H]3[C@](C2)(C[C@H](OC(C)=O)[C@@H]2C(C)(C)[C@@H](OC(C)=O)C[C@H](OC(C)=O)[C@]23C)[C@@H]1O	Not toxic	–
C=C1[C@@H]2C[C@H](O)[C@H]3[C@]4(C)CC[C@H](O)C(C)(C)[C@H]4[C@@H](OC(C)=O)C[C@]3(C2)[C@@H]1O	Not toxic	–
C=C1[C@@H]2C[C@H](O)[C@H]3[C@]4(C)CC[C@H](O)C(C)(C)[C@H]4[C@@H](OC(C)=O)[C@H](O)[C@]3(C2)[C@@H]1O	Not toxic	–
C=C1[C@@H]2C[C@H](O)[C@H]3[C@]4(C)CC[C@H](O)C(C)(C)[C@H]4[C@@H](OC(C)=O)[C@H](OC(C)=O)[C@]3(C2)[C@@H]1O	Not toxic	–
C=C1[C@@H]2C[C@H](O)[C@H]3[C@]4(C)CC[C@H](OC(C)=O)C(C)(C)[C@H]4[C@@H](OC(C)=O)C[C@]3(C2)[C@@H]1O	Not toxic	–
C=C1[C@@H]2C[C@H](O)[C@H]3[C@]4(C)CC[C@H](OC(C)=O)C(C)(C)[C@H]4[C@@H](OC(C)=O)[C@H](OC(C)=O)[C@]3(C2)[C@@H]1O	Not toxic	–
C=C1C(=O)[C@]23C[C@H]1C[C@H](O)[C@H]2[C@]1(C)CC[C@H](OC(C)=O)C(C)(C)[C@H]1[C@@H](OC(C)=O)[C@@H]3OC(C)=O [DAWOENSIN A]	–	3.54 (≈ 7.43 µM)
C=C1C(=O)[C@]23C[C@H]1C[C@H](O)[C@H]2[C@]1(C)CC[C@H](OC(C)=O)C(C)(C)[C@H]1[C@@H](OC(C)=O)[C@@H]3O [MELISSOIDESIN G]	–	6.62 (≈ 15.2 µM)
C=C1C(=O)[C@]23C[C@H]1C[C@H](O)[C@H]2[C@]1(C)CC[C@H](O)C(C)(C)[C@H]1[C@@H](OC(C)=O)C3 [MELISSOIDESIN N]	–	0.036 (≈ 0.0956 µM)
C=C1C(=O)[C@]23C[C@H]1C[C@H](O)[C@H]2[C@]1(C)CC[C@H](OC(C)=O)C(C)(C)[C@H]1[C@@H](OC(C)=O)C3 [MELISSOIDESIN O]	–	7.83 (≈ 18.7 µM)
C=C1C(=O)[C@]23C[C@H]1C[C@H](O)[C@H]2[C@@]1(C)[C@H]([C@@H](OC(C)=O)C3)C(C)(C)[C@@H](OC(C)=O)C[C@@H]1O [MELISSOIDESIN S]	–	7.71 (≈ 17.7 µM)
CC[C@]1(O)C[C@H]2CN(CCc3c([nH]c4ccccc34)[C@@](C(=O)OC)(c3cc4c(cc3OC)N(C=O)[C@H]3[C@@](O)(C(=O)OC)[C@H](OC(C)=O)[C@]5(CC)C=CCN6CC[C@]43[C@@H]65)C2)C1 [VINCRISTINE]	–	0.066 (≈ 0.08 µM)
C=C1C(=O)[C@]23C[C@H]1C[C@H](O)[C@H]2[C@]1(C)CC[C@H](O)C(C)(C)[C@H]1[C@@H](OC(C)=O)[C@@H]3O [XINDONGNIN B]	–	9.45 (≈ 24.1 µM)
